Test results as given in patent US20240108634A1, “COMPOSITIONS AND METHODS FOR INHIBITING YAP” (The United States Government as represented by the …, priority 2021, published 2024).

Experiments:
[1] = target: T1, YAP association with TEAD1-4, SMAD7, p73, FOS, TBXS (Homo sapiens, UniProt P46937); assay: HA-YAP1 immunoprecipitation from LN229 cells, immunoblot for TEAD1-4 and other transcription factors; type: cell-based; conditions: LN229 cells expressing HA-YAP, 18 h
T1 construct: expressed in transfected cells
T1 sequence (P46937 whole entry): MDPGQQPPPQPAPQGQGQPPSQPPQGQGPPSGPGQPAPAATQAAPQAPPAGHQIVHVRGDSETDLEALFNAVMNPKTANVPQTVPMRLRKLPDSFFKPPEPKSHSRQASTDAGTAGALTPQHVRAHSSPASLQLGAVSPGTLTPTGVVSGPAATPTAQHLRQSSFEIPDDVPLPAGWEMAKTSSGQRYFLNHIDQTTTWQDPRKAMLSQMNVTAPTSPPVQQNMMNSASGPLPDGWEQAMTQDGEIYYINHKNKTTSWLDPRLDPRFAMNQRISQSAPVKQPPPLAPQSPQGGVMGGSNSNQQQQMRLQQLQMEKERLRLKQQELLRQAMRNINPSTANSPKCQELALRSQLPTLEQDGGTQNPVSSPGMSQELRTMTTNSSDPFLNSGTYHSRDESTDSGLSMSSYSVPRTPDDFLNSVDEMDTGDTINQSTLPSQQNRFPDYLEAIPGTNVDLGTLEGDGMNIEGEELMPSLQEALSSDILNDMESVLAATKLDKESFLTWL
Description: Levels of total YAP were determined via ELISA. […] Immunoprecipitates were immunoblotted for the indicated proteins. […] Cells were treated with the indicated concentrations of inhibitor for 18 h and mRNA extracted for real time RT-PCR analyses. Measurements were performed in quadruplicate and means and+S.D. are shown. […] Cells were treated with (+) or without (−) NSC682769 (100 nM, 18 h) and harvested and separated into cytoplasmic and nuclear cellular fractions. Cytoplasmic versus nuclear material was subsequently immunoblotted for the indicated proteins. […] Values in top right corner of panels correspond to the percentage of nuclear localized YAP. […]
Protein and mRNA analyses, immunoprecipitation, in vitro bead-coupled inhibitor binding assays and HPLC analyses. […] Antigen-antibody complexes were detected using appropriate horseradish peroxidase-conjugated secondary antibodies (GE Healthcare) and enhanced chemiluminescence (Amersham ECL Prime). […] For quantitative RT-PCR, extraction of RNA was performed using Trizol® (Life Technologies). Total RNA was then quantified and integrity assessed using an Agilent 2100 Bioanalyzer (Agilent Technology). […] SYBR® Green quantitative PCR (Millipore Sigma) was performed in triplicate in 96-well optical plates on an ABI Prism 7000 Sequence Detection System (Life Technologies) according to the manufacturer's instructions. […]

[2] = test system: LN229 and GBM39 cells; assay: GBM cell proliferation; type: cell-based, human; conditions: 0.1, 1, 2 μM
Description: Cells were layered in soft agar to evaluate anchorage-independent growth in the presence of the indicated concentrations of inhibitor and colonies counted following 14 days of growth. Representative crystal violet stained images are shown below. Data represent mean+S.D. of three independent experiments. […] Cells were placed in Boyden chambers and allowed to migrate towards BSA (white bars), vitronectin (light yellow bars), or fibronectin (dark yellow bars) (*, P<0.05; n=3). […] Representative crystal violet stained images are shown (200×). Data represent mean+S.D. of three independent experiments. […] Graphical data shown below represent mean+S.D. (late apoptosis; annexin V-positive, PI-positive) of three independent experiments.
Cell proliferation, clonogenic, migration, invasion and apoptosis assays. Cell proliferation was determined via Cell Titer-Glo® luminescent cell assays (Promega). Clonogenic assays were done by plating a total of 1,000 cells per well in 24-well plates in a total volume of 400 μL using a two-layered soft agar system as previously described (Masri J, et al. (2007) Cancer Res 67: 11712-11720). Cell migration assays were conducted using precoated modified Boyden chambers as previously described (Benavides-Serrato A, et al. (2017) PLoS One 12: e0176599). […]

In the case of `COc1ccc(-c2cc(-c3ccccc3)nc3c2CC(=O)Nc2ccccc2-3)cc1OC` [NSC682769], the “Binding of TEAD1-4 to YAP” value [1] is reported as “inhibited the binding of the four TEAD members to YAP”, the “SMAD7, p73, FOS or TBXS association with YAP” value [1] is reported as “no appreciable effects” and the Cell growth [2] is reported as “significantly inhibited”.
